According to US20230406803A1, “TROPOLONE DERIVATIVES AND TAUTOMERS THEREOF FOR IRON REGULATION IN ANIMALS” (Kinesid Therapeutics, Inc, priority 2020, published 2023):
Marks after values point to notes of the source that are not given here.

Tests used:
[1] = Human liver microsomal stability assay; assay type: in vitro ADME; conditions: human, microsomes
Excerpt: (§1) Further examples of useful assays include metabolic stability assays, such as but not limited to e.g., liver microsomal clearance assays which provide measurement such as, but not limited to e.g., liver microsomal clearance half-life (t1/2), liver microsomal intrinsic clearance (CLint), and the like. Such measurements are useful in assessing various characteristics of a subject compound, such as e.g., the availability of an intact compound to provide a pharmacological effect. A compound having a longer microsomal clearance half-life (t1/2), e.g., than a reference compound, will provide better exposure of the intact compound and greater availability to produce the relevant pharmacological effect. A compound having a less microsomal clearance, e.g., as measured by liver microsomal intrinsic clearance (CLint), will similarly result in greater exposure of the intact compound available for an increase in the relevant pharmacological effect, e.g., as compared to that of a reference compound with a higher liver microsomal intrinsic clearance (CLint). Other useful assays include in vitro hepatocyte metabolic stability assays.
(§2) Such assessments included human and mouse liver microsomal stability assays as well as 6-hour mouse PK studies.

[2] = Mouse liver microsomal stability assay; assay type: in vitro ADME; conditions: mouse, microsomes
Excerpt: as §1, §2

[3] = Mouse 6-hour PK study; conditions: mouse, in vivo
Excerpt: Useful such assays include, but are not limited to e.g., those measurements made in PK studies, such as rodent and non-human primate PK studies, including e.g., mouse (such as mouse 6-hour PK studies), rat PK studies, cynomolgus or rhesus PK studies, or the like. Useful measurements obtained in such PK studies include but are not limited to e.g., maximum concentration (Cmax) reflecting the “peak” of a drug observed after its administration that can reflect not only the rate but also the extent of absorption, area under the curve (AUC) representing the area under the plot of tissue (e.g., plasma) concentration against time after drug administration which is of particular use in estimating bioavailability of drugs and drug total clearance, half-life (t1/2) or the period of time required for the concentration or amount of drug to be reduced to exactly one-half of a given concentration or amount that indicates the persistence of the drug in its volume of distribution, and the like.
as §2

[4] = system: mouse model of turpentine oil (TO)-induced anemia of inflammation; assay: Turpentine oil induced anemia of inflammation; assay type: in vivo; conditions: PO, hinokitiol as comparator in the respective studies
Method: Assay 3: Turpentine Oil Induced Anemia of Inflammation This is a model of anemia of inflammation by turpentine oil injection in combination with phlebotomy. Conditioning: Mice receive 3 doses of turpentine oil subcutaneously within 2 weeks. Mice are anesthetized and then administered 0.1 mL/20 g body weight of turpentine oil (TO) via subcutaneous injection in the scapular fat area using syringe and 27 G needle on Day 1, 7, and 14. On day 14, after the final injection of turpentine oil, a controlled 10% hemorrhage (approximately 200 uL) is accomplished via anesthetized orbital sinus bleed to increase the magnitude of anemia. The bleeding uses an orbital blood sampling technique, 200 uL capillary bleeding device (essentially a vacutainer tube with a glass capillary tube attached). Clean gauze lightly pre-soaked with sterile saline is held over the eye immediately following hemorrhage to promote hemostasis. Treatment: On day 15, 16 hours post last dose of turpentine oil, sham group and TO plus bleeding group are terminated. These two groups are used as part of control. On day 15, vehicle group and compound treatment groups receive proper vehicle or compounds at a specified dose accordingly, treatments can be oral once a day or oral twice a day. The treatment continues for 7 days, and then is terminated on day 21. On day 21, 3 hours post last treatment of test articles, the vehicle and treatment group are terminated. […] Depth of anesthesia is monitored by toe pinch method. […] Data analysis: The iron mobilization impact of compounds is assessed based on the serum iron level, transferrin saturation and TIBC; the ability of test article to restore normal iron homeostasis and metabolism, and subsequent rescue of anemia, is assessed by comparing the hemoglobin and hematocrit levels of test article treated groups with vehicle treated group. Test articles were evaluated in the described mouse model of turpentine oil (TO)-induced anemia of inflammation (A of I). […]

Row | SMILES | clearance half-life (t1/2) and intrinsic clearance (CLint) as compared to hinokitiol [1] | half-life [1] [h] | microsomal CLint [1] [µL/min/mg] | clearance half-life (t1/2) and intrinsic clearance (CLint) as compared to hinokitiol [2] | half-life [2] [h] | microsomal CLint [2] [µL/min/mg] | AUC(0-t) [3] [ng·h/mL] | Cmax [3] [ng/mL] | half-life [3] [h] | mouse 6-hour PK properties as compared to hinokitiol [3] | levels of Hgb compared with hinokitiol [4] | Human CLint [1] | Human t1/2 [1] | Mouse CLint [2] | Mouse t1/2 [2]
1 | O=c1ccccc([C@H]2CCCO2)c1O (single isomer, unassigned) [Ex. 41] | longer clearance half-life (t1/2) and lower intrinsic clearance (CLint), or both as compared to hinokitiol | 0.417 to 0.833 | 25 to 50 | longer clearance half-life (t1/2) and lower intrinsic clearance (CLint), or both as compared to hinokitiol | 0.417 to 0.833 | 25 to 50 | 500 to 1500 | 1500 to 5000 | < 1.25 | one or more improved mouse 6-hour PK properties as compared to hinokitiol |  |  |  |  | 
2 | O=c1ccccc([C@@H]2CCCO2)c1O (single isomer, unassigned) [Ex. 42] | longer clearance half-life (t1/2) and lower intrinsic clearance (CLint), or both as compared to hinokitiol | 0.833 to 1.67 | < 25 | longer clearance half-life (t1/2) and lower intrinsic clearance (CLint), or both as compared to hinokitiol | 0.417 to 0.833 | 25 to 50 | 500 to 1500 | 1500 to 5000 | < 1.25 | one or more improved mouse 6-hour PK properties as compared to hinokitiol | comparable or higher levels of Hgb than hinokitiol |  |  |  | 
3 | CC(C)c1ccc(F)c(=O)c(O)c1 [Ex. 1, 7-fluoro-2-hydroxy-4-isopropylcyclohepta-2,4,6-trien-1-one] | longer clearance half-life (t1/2) and lower intrinsic clearance (CLint), or both as compared to hinokitiol | 0.417 to 0.833 | 25 to 50 | longer clearance half-life (t1/2) and lower intrinsic clearance (CLint), or both as compared to hinokitiol | > 2.5 | < 25 | 5000 to 20000 | 5000 to 20000 | 1.25 to 4.99 | one or more improved mouse 6-hour PK properties as compared to hinokitiol | comparable or higher levels of Hgb than hinokitiol |  |  |  | 
4 | CC(C)c1cccc(=O)c(O)c1F [Ex. 2, 3-fluoro-2-hydroxy-4-isopropylcyclohepta-2,4,6-trien-1-one] | longer clearance half-life (t1/2) and lower intrinsic clearance (CLint), or both as compared to hinokitiol | > 2.5 | < 25 | longer clearance half-life (t1/2) and lower intrinsic clearance (CLint), or both as compared to hinokitiol | > 2.5 | < 25 | 5000 to 20000 | 5000 to 20000 | 1.25 to 4.99 | one or more improved mouse 6-hour PK properties as compared to hinokitiol |  |  |  |  | 
5 | CC(C)c1cccc(F)c(=O)c1O [Ex. 4, 7-fluoro-2-hydroxy-3-isopropylcyclohepta-2,4,6-trien-1-one] | longer clearance half-life (t1/2) and lower intrinsic clearance (CLint), or both as compared to hinokitiol | 0.417 to 0.833 | > 50 | longer clearance half-life (t1/2) and lower intrinsic clearance (CLint), or both as compared to hinokitiol | 0.417 to 0.833 | 25 to 50 | > 20000 | 5000 to 20000 | 1.25 to 4.99 | one or more improved mouse 6-hour PK properties as compared to hinokitiol |  |  |  |  | 
6 | O=c1ccc(OC2COC2)ccc1O [Ex. 12, 2-hydroxy-5-(oxetan-3-yloxy)cyclohepta-2,4,6-trien-1-one] | longer clearance half-life (t1/2) and lower intrinsic clearance (CLint), or both as compared to hinokitiol |  |  | longer clearance half-life (t1/2) and lower intrinsic clearance (CLint), or both as compared to hinokitiol |  |  | < 499 | 500 to 1500 | 1.25 to 4.99 | one or more improved mouse 6-hour PK properties as compared to hinokitiol |  | 0.00* μL/min/mg protein | ∞* | 0.00* μL/min/mg protein | ∞*
7 | Cc1cccc(F)c(=O)c1O [Ex. 32, 7-fluoro-2-hydroxy-3-methylcyclohepta-2,4,6-trien-1-one] | longer clearance half-life (t1/2) and lower intrinsic clearance (CLint), or both as compared to hinokitiol | > 2.5 | < 25 | longer clearance half-life (t1/2) and lower intrinsic clearance (CLint), or both as compared to hinokitiol | > 2.5 | < 25 | > 20000 | 5000 to 20000 | 1.25 to 4.99 | one or more improved mouse 6-hour PK properties as compared to hinokitiol | comparable or higher levels of Hgb than hinokitiol |  |  |  | 
8 | O=c1c(F)cccc(C2CCOCC2)c1O [Ex. 36, 7-fluoro-2-hydroxy-3-(tetrahydro-2H-pyran-4-yl)cyclohepta-2,4,6-trien-1-one] | longer clearance half-life (t1/2) and lower intrinsic clearance (CLint), or both as compared to hinokitiol |  |  | longer clearance half-life (t1/2) and lower intrinsic clearance (CLint), or both as compared to hinokitiol | > 2.5 | < 25 | > 20000 | > 20000 | 1.25 to 4.99 | one or more improved mouse 6-hour PK properties as compared to hinokitiol |  | 0.00* μL/min/mg protein | ∞* |  | 
9 | O=c1ccccc(OC2CCC2)c1O [Ex. 56, 3-cyclobutoxy-2-hydroxycyclohepta-2,4,6-trien-1-one] | longer clearance half-life (t1/2) and lower intrinsic clearance (CLint), or both as compared to hinokitiol | 1.67 to 2.5 | < 25 | longer clearance half-life (t1/2) and lower intrinsic clearance (CLint), or both as compared to hinokitiol | 0.417 to 0.833 | 25 to 50 | 1500 to 5000 | 1500 to 5000 | < 1.25 | one or more improved mouse 6-hour PK properties as compared to hinokitiol |  |  |  |  | 
